Laboratory results: paper PMC8418751, “3D-printing magnesium–polycaprolactone loaded with melatonin inhibits the development of osteosarcoma by regulating cell-in-cell structures” (Journal of Nanobiotechnology, 2021)

How the values were obtained:
[1] = In vitro release of melatonin (dialysis bag, PBS pH 7.4); assay type: physicochemical; conditions: at 10 h; PBS pH 7.4, 37 °C
Experimental: Standard curve of melatonin was first draw using PBS (pH = 7.4) as solvent under the wavelength of the maximum absorption peak (278 nm). […] The dialysis bag was then placed in a beaker containing the same pH PBS buffer and was vibrated horizontally in a constant temperature shaker (37 °C ± 0.5 °C) with a vibration frequency of 50 times/min. The release liquid (5 ml) was replaced with same amounts of fresh PBS at selected time intervals. The absorbance value of the solution was measured at 278 nm and the drug release rate was calculated as follow: R(%)=ρnV+Vi∑tn-iρi/MD×100 where R means the cumulative drug release rate (%); n means the number of sampling. ρn represents the mass concentration (g/l) of the drug in the nth release. V represents the total volume of the release liquid. ρi represents the mass concentration (g/l) of the drug in the ith release, Vi represents the volume of the release liquid at the ith sampling and MD means the mass of drug loaded (g).

[2] = In vivo safety of melatonin in mice (body weight, HE of main organs); conditions: tail vein, once every 2 days at 3 mg each time, 30 days
Experimental: Tissues were fixed in 4% paraformaldehyde. After fixation, the samples were decalcified in 10% EDTA for 21 days before paraffin embedding and then sliced microtomically into a systematic series of 16 μm sections. Standard HE staining was performed and photographed. The average number of deposits per section was calculated using Image-Pro Plus 6.0 (Media Cybernetics, USA).
The safety of melatonin in mice was further studied by injecting melatonin into the tail vein of mice once every 2 days at 3 mg each time. After 30 days, the heart, liver, spleen, lung, kidney and other important organs were collected, sectioned and stained with HE for microscopy observation. […] Along with the increasing of the mass ratio of melatonin and SunP Gel G1, the LE and LC were increased. The LE reached peak at mass ratio of 1:2 and was decreased at mass ratio of 2:1. The mass ratio of 1:2 was selected for further experiments.

[3] = system: U2OS cells; test: Transwell (Boyden chamber) cell invasion and migration assays; assay type: cell-based, human; conditions: 24 h
Experimental: (§1) U2OS cells were divided into 8 groups: (1) Control group: without any treatment; (2) MT group: U2OS cells were added with 1 mM melatonin; (3) MT + ROCK activator group: U2OS cells were added with 1mM melatonin and 50 µM ROCK activator (pentanoic acid); (4) MT + ROCK inhibitor group: U2OS cells were added with 1mM melatonin and 50 µM ROCK inhibitor (ROCK inhibitor-2); (5) Mg–PCL group: U2OS cells were co-cultured with Mg–PCL scaffold; (6) Mg–PCL + MT group: U2OS cells were co-cultured with Mg–PCL scaffold loaded with melatonin; (7) Mg–PCL + MT + ROCK activator group: U2OS cells were co-cultured with Mg–PCL scaffold loaded with melatonin and added with 50 µM ROCK activator (pentanoic acid); and (8) Mg–PCL + MT + ROCK activator group: U2OS cells were co-cultured with Mg–PCL scaffold loaded with melatonin and added with 50 µM ROCK inhibitor (ROCK inhibitor-2).
To examine the effects of melatonin and CIC formation on the invasiveness of U2OS cells in vitro, we employed a modified Boyden chamber invasion assay with Matrigel coating. After treatment, the cells were seeded into the upper section of the Boyden chamber (Neuro Probe, Cabin John, MD, USA) at densities of 2.0 × 10^5/ml, and then incubated for 24 h at 37 °C. Finally, the cells were counted under a light microscope. Cell migration was measured by a cell invasion assay without Matrigel coating.

[4] = system: U2OS cells; test: CIC formation in U2OS cells (immunofluorescence, electron microscope); assay type: cell-based, human; conditions: immunofluorescence and electron microscope
Experimental: The cells were scrapped after treatment, collected by centrifugation, washed with PBS and fixed with 5% glutaraldehyde. After the cells were dehydrated, embedded, sectioned, stained, the mitophagosomes were observed by TEM. The quantity of CIC structures was calculated in 10 fields a view. After treatment, the cells were fixed with 4% paraformaldehyde at room temperature (23–25 °C) for 15 min. After PBS washing, cells were permeabilized with 0.2% Triton X-100 for 5 min. Sections were incubated in a blocking buffer containing 5% BSA for 30 min at room temperature (23–25 °C), followed by incubation with primary antibodies overnight at 4 °C. Secondary antibodies labeled with fluorescein (1:500, Abcam) were applied for 120 min. After incubating with 0.1% DAPI for 10 min and another wash with PBS, images were captured on a wide field fluorescent microscope (Olympus, Japan). Each experiment was repeated three times (total, n = 90 cells) and the fluorescence intensities were quantified with the ImageJ software. […] The cells were then washed with ice-cold PBS, and analyzed under a confocal laser scanning microscope (Olympus, Tokyo, Japan). […] Image-Pro Plus 6.0 (Media Cybernetics) was used for quantifying mitochondria.

[5] = system: U2OS cells; test: Mitochondrial physiology of U2OS cells (fluorescence, Western blot, mtDNA, ATP, O2 consumption); assay type: cell-based, human; conditions: 24 h
Experimental: as §1
Cells or tissues were washed with ice-cold PBS and resuspended in lysis buffer (50 mM Tris–HCl, 150mM NaCl, 1% NP-40, 0.5% sodium deoxycholate, 0.1% sodium dodecyl sulfate) containing protease and phosphorylase inhibitor cocktails. After centrifugation at 12,000g for 30 min at 4 °C, the supernatant containing total protein was collected and quantified using the BCA protein concentration assay kit (Boster, Hubei, China). […] Immunoreactive bands were visualized by the EC3 imaging system (UVP Inc., California, USA), and quantified with the ImageJ software (NIH, USA). The ratios between the proteins of interest and loading controls of the same sample were calculated as relative content and expressed graphically. […]
After treatment, the cells were fixed with 4% paraformaldehyde at room temperature (23–25 °C) for 15 min. […] Each experiment was repeated three times (total, n = 90 cells) and the fluorescence intensities were quantified with the ImageJ software. […] The cells were then washed with ice-cold PBS, and analyzed under a confocal laser scanning microscope (Olympus, Tokyo, Japan). […] Image-Pro Plus 6.0 (Media Cybernetics) was used for quantifying mitochondria. […]

[6] = system: U2OS cells; test: Wound-healing assay; assay type: cell-based, human
Experimental: as §1
The U2OS cells were plated at 8.5 × 10^5/well on 6-well plates for 48 h and were wounded by scratching with a pipette tip. They were subsequently incubated with DMEM containing 0.5% FBS. After repeated treatment at 0, 12, 24 and 48 h, the cells were photographed using a phase contrast microscope (Olympus, Japan).

[7] = system: PKA-Rho/ROCK signaling pathway; test: Western blot of PKA, p-PKA, Rho, ROCK in U2OS cells; assay type: cell-based, human
Experimental: Cells or tissues were washed with ice-cold PBS and resuspended in lysis buffer (50 mM Tris–HCl, 150mM NaCl, 1% NP-40, 0.5% sodium deoxycholate, 0.1% sodium dodecyl sulfate) containing protease and phosphorylase inhibitor cocktails. After centrifugation at 12,000g for 30 min at 4 °C, the supernatant containing total protein was collected and quantified using the BCA protein concentration assay kit (Boster, Hubei, China). The samples were separated by SDS-PAGE and then transferred to polyvinylidene difluoride (PVDF) membranes (Millipore, Massachusetts, USA) (210 mA, between 30 and 120 min according to the molecular mass of the protein). After blocking for 2 h with 5% non-fat milk, the PVDF membranes were incubated with the appropriate primary antibodies (1:500 or 1:1000 dilution) at 4 °C overnight. The blots were then incubated with anti-mouse or anti-rabbit IgG conjugated to horseradish peroxidase (1:5000 dilution) for 1 h at room temperature (23–25 °C). Immunoreactive bands were visualized by the EC3 imaging system (UVP Inc., California, USA), and quantified with the ImageJ software (NIH, USA). The ratios between the proteins of interest and loading controls of the same sample were calculated as relative content and expressed graphically. The results were averaged from three independent experiments.

[8] = system: human OS (U2OS) cells; test: U2OS xenograft in nude mice: OS growth and metastasis; assay type: in vivo, Balb/c nude mice; conditions: nude mice with implanted U2OS cells, 27 days
Experimental: Female Balb/c nude mice (n = 6, 8 weeks old) were purchased from the Experimental Animal Center of Jilin University. The mice were bred under temperature-controlled conditions at 22.6 ± 2 °C with a 12-h day/light cycle. All applicable institutional and national guidelines for the care and use of animals were followed and the animal experiments were approved by the Animal Care and Use Committee of China Medical University. The heterograft mouse model was established by subcutaneous injection of 2 × 10^8 human OS (U2OS) cells suspended in 0.2 ml medium into the root of the right thigh. […]
The mice were sacrificed. […] Histological alterations were evaluated using a fluorescence microscope (Nikon Eclipse Ti, Optical Apparatus Co., Ardmore, USA) and a confocal microscope (Carl Zeiss, LSM 780).
Tissues were fixed in 4% paraformaldehyde. […] The average number of deposits per section was calculated using Image-Pro Plus 6.0 (Media Cybernetics, USA). […]

With `COc1ccc2[nH]cc(CCNC(C)=O)c2c1` [melatonin, Melatonin] the cumulative release rate [1] was 96.3%, the “organ damage (HE staining of heart, liver, spleen, lung, kidney)” value [2] was “no organ damage was observed” and the weight of mice [2] was “stable without notable changes”. For the same molecule, the “number of invaded and migrated cells (Transwell)” value [3] was “significantly lower”, the “number of CIC structure” value [4] was “significantly reduced” and the “relative fluorescence of mitochondria” value ([5]; 1 mM melatonin, 50 µM ROCK activator/inhibitor) was “reduced”. For the same molecule, the “expression of mitochondrial biogenesis-related proteins PGC1α, NRF1 and TFAM” value ([5]; Western blot) was “downregulated”, the “expression of mitochondrial biomarkers TOM20, COX-4l1 and ATP Synβ” value ([5]; Western blot) was “reduced” and the “cell migrated area relative to control (wound healing)” value ([6]; U2OS cells) was “significantly decreased”. For the same molecule, the “scratch width (wound healing)” value ([6]; U2OS cells, 0, 12, 24 and 48 h) was “wider”, the “PKA phosphorylation (Western blot)” value [7] was “promote PKA phosphorylation” and the “Rho and ROCK expressions (Western blot)” value [7] was “reduced”. The “cell apoptosis of xenograft tumors (TUNEL)” value [8] was “promoted”, the “tumor weight of xenograft tumors” value [8] was “effectively inhibited” and the “cell proliferation of xenograft tumors (Ki-67)” value ([8]; melatonin 40 mg kg−1 day−1 i.p. or loaded scaffold, ROCK activator/inhibitor 10 mg kg−1 day−1 i.p.) was “effectively inhibited”.
